Test results reported in ChEMBL document CHEMBL3286288, “Diterpenes from the endangered goldenrod Solidago shortii” (2014).
The source made the active and inactive calls. The calls are words filed in the database; no cut-off is given here.

Columns and labels:
Staphylococcus aureus [1] = experiment: Antibacterial activity against methicillin-resistant Staphylococcus aureus 108 assessed as growth inhibition up to 16 ug/ml after 24 hrs by broth microdilution method; format: functional, organism-based
NCI-H460 = experiment: Growth inhibition of human NCI-H460 cells after 72 hrs at 10 uM; format: functional, cell-based
Staphylococcus aureus [2] = experiment: Antibacterial activity against methicillin-susceptible Staphylococcus aureus ATCC 25923 assessed as growth inhibition at 8 ug/ml after 24 hrs by broth microdilution method relative to control; format: functional; conditions: ATCC 25923, 24 h, read-out: GI
Staphylococcus aureus [3] = experiment: Antibacterial activity against methicillin-susceptible Staphylococcus aureus ATCC 25923 assessed as growth inhibition at 64 ug/ml after 24 hrs by broth microdilution method; format: functional, organism-based

SMILES | growth inhibition (GI) (Staphylococcus aureus [1]) | growth inhibition (GI) (NCI-H460) | inhibition of growth at 8 µg/mL (Staphylococcus aureus [2]) [%] | growth inhibition (GI) (Staphylococcus aureus [3])
C[C@@H]1C[C@H]2C(=O)C(C)(C)[C@@H](O)CC[C@]2(O)[C@]1(C)CCC1=CC(=O)OC1 | inactive | inactive | 66 | 
C/C=C(/C)C(=O)O[C@H]1C[C@]2(C)[C@@H](CC[C@@H](OC(=O)C(F)(F)F)[C@]2(C)O)[C@](C)(CCC2=CC(=O)OC2)[C@@H]1C | inactive | inactive |  | 
C[C@@H]1CC[C@]2(O)[C@H](C[C@H](O)C2(C)C)C(=O)[C@]1(C)CCC1=CC(=O)OC1 | inactive | inactive | 56 | 
C/C=C(/C)C(=O)O[C@H]1C[C@]2(C)[C@@H](CC[C@@H](O)[C@]2(C)O)[C@](C)(CCC2=CC(=O)OC2)[C@@H]1C | inactive | inactive |  | 
C/C=C(/C)C(=O)O[C@H]1C[C@]2(C)[C@@H](CC[C@@H](NC(C)=O)[C@]2(C)O)[C@](C)(CCC2=CC(=O)OC2)[C@@H]1C | inactive | inactive |  | 
C/C=C(/C)C(=O)O[C@H]1C[C@]2(C)[C@@H](CC[C@H]3O[C@]32C)[C@](C)(CCC2=CC(=O)OC2)[C@@H]1C | inactive | inactive |  | inactive
